The conditions of data set [1]: instrument: DT, single field, calibrated with Agilent tune mix (Agilent).
The conditions of data set [2]: instrument: DT, single field, calibrated with Agilent tune mix (Agilent). This is another data set of the same source.

The values that follow come from the C3SDB collision cross section collection.

Molecules are shown by their SMILES.

As to `CCCCCCCCCCCCCCCCCC(=O)N[C@@H](CO)[C@H](O)CCCCCCCCCCCCCCC` [Cer(36:0)], the “collision cross section (N2)” value in data set [1] ([M+HCOO]-) is 259 Å²; in data set [1] ([M+H]+), 262 Å²; in data set [1] ([M+Na]+), 267.7 Å²; in data set [1] ([M-H]-), 249 Å².
`CCCCCCCCCCCCC=CC[C@@H](O)[C@H](CO)NC(=O)CCCCCCCCCCCCCCCCCC` [Cer(37:1)]: the “collision cross section (N2)” value is recorded as 258.9 Å² in data set [1] ([M+HCOO]-), 263.4 Å² in data set [1] ([M+H]+) and 269.8 Å² in data set [1] ([M+Na]+).
On to `CCCCCCCCCCCCCCCCCCCC(=O)N[C@@H](CO)[C@H](O)CCCCCCCCCCCCCCC` [Cer(38:0)], for which the entries for the “collision cross section (N2)” value in data set [1] ([M+HCOO]-) and in data set [1] ([M+H]+) were 265.2 Å² and 267.9 Å², respectively.
As for `CCCCCCCCCCCCC=CC[C@@H](O)[C@H](CO)NC(=O)CC=CCCCCCCCCCCCCCCCC` [Cer(38:2)], the “collision cross section (N2)” value in data set [1] ([M+H]+) is 262.4 Å²; in data set [1] ([M+Na]+) it was 262.1 Å².
In the case of `CCCCCCCCCCCCC=CC[C@@H](O)[C@H](CO)NC(=O)CC=CCCCCCCCCCCCCCCCCCC` [Cer(40:2)], the “collision cross section (N2)” value in data set [1] ([M+H]+) turned out to be 270.3 Å²; in data set [1] ([M+Na]+) it was 271.4 Å²; in data set [1] ([M-H]-), 259.8 Å².
`CCCCCCCCCCCCC=CC[C@@H](O)[C@H](CO)NC(=O)CCCCCCCCCCCCCCCCCCCCCCCC` [Cer(43:1)]: the “collision cross section (N2)” value in data set [1] ([M+H]+) stood at 282 Å².
On the same count and under the same terms, in the case of `CCCCCCCCCCCCC=CC[C@@H](O)[C@H](CO)NC(=O)CC=CCCCCCCCCCCCCCCCCCCCCCC` [Cer(44:2)] it was 283.5 Å².
In the case of `CCCCCCCC/C=C\CCCCCCCCCC(=O)O[C@@H](CO)COC(=O)CCCCCCC/C=C\CCCCCCCC` [DG(38:2)], the “collision cross section (N2)” value in data set [1] ([M+NH4]+) came to 271.6 Å².
Same read-out and setting: in the case of `CCCCC/C=C\C/C=C\CCCCCCCCCC(=O)O[C@@H](CO)COC(=O)CCCCCCCCCCCCCCCCCCC` [DG(40:2)] it was 277.7 Å².
On to `CCCCC/C=C\C/C=C\CCCCCCCC(=O)OC[C@@H](O)COP(=O)([O-])OCC[N+](C)(C)C` [LPC(18:2)], for which the “collision cross section (N2)” value in data set [1] ([M+HCOO]-) is on record as 235.2 Å²; in data set [1] ([M+H]+) it was 226.8 Å²; in data set [1] ([M+Na]+), 231.9 Å².
Take `CCCCCCCCCCCCCCCCC(=O)OC[C@@H](O)COP(=O)(O)OCCN` [LPE(17:0)]: the “collision cross section (N2)” value in data set [1] ([M+H]+) is given as 217.1 Å²; in data set [1] ([M-H]-), 210.1 Å².
Consider `CCCCC/C=C\C/C=C\CCCCCCCCCC(=O)OC[C@@H](O)COP(=O)(O)OCCN` [LPE(20:2)], for which the “collision cross section (N2)” value in data set [1] ([M-H]-) was found to be 216.4 Å².
On the same count and under the same terms, in the case of `CCCCCCCCCCCCCCCCC(=O)OC[C@@H](O)COP(=O)(O)O[C@H]1C(O)C(O)C(O)[C@@H](O)C1O` (stereo not given in full) [LPI(17:0)] it was 232.6 Å².
Still for that read-out and setting: in the case of `CCCCCCCCCCCCCCCC(=O)OC[C@@H](O)COP(=O)(O)OC[C@H](N)C(=O)O` [LPS(16:0)] it was 216.4 Å².
On to `CCCCCCCC/C=C\CCCCCCCCCC(=O)OC[C@@H](O)COP(=O)(O)OC[C@H](N)C(=O)O` [LPS(20:1)], for which the “collision cross section (N2)” value in data set [1] ([M+H]+) was 231.8 Å².
In the case of `CCCCC/C=C\C/C=C\C/C=C\CCCCCCC(=O)OC[C@@H](O)COP(=O)(O)OC[C@H](N)C(=O)O` [LPS(20:3)], the “collision cross section (N2)” value in data set [1] ([M-H]-) was found to be 221.5 Å².
In the case of `CCCCC/C=C\C/C=C\C/C=C\C/C=C\CCCCCC(=O)O[C@H](COC(=O)CCCCCCCCCCCCCC)COP(=O)([O-])OCC[N+](C)(C)C` [PC(37:4)], the “collision cross section (N2)” value in data set [1] ([M+H]+) is 290.4 Å².
On the same count and under the same terms, in the case of `CCCCCCCCCCCCCCCC/C=C\OC[C@H](COP(=O)([O-])OCC[N+](C)(C)C)OC(=O)CCCCCCCCCCCCCCC` [PC(p34:0)] it was 288.3 Å²; in that of `CCCCC/C=C\C/C=C\C/C=C\C/C=C\CCCCCC(=O)O[C@H](CO/C=C\CCCCCCCCCCCCCCCC)COP(=O)([O-])OCC[N+](C)(C)C` [PC(p40:4)], 300.9 Å².
Still for that read-out and setting: in the case of `CCCCCCCCCCCCCC/C=C\OC[C@H](COP(=O)(O)OCCN)OC(=O)CCCCCCCCCCCCCCCCC` [PE(p34:0)] it was 274.6 Å².
Consider `CCCCCCCCCCCCCCCC/C=C\OC[C@H](COP(=O)(O)OCCN)OC(=O)CCCCCCCCCCCCCCCCC` [PE(p36:0)], for which the “collision cross section (N2)” value worked out at 281.6 Å² in data set [1] ([M+H]+) and 268.4 Å² in data set [1] ([M-H]-).
`NCc1[nH]cc(CCC(=O)O)c1CC(=O)O` [Porphobilinogen]: the “collision cross section (N2)” value in data set [2] ([M+Na]+) worked out at 148.1 Å²; in data set [2] ([M-H]-), 146.22 Å².
For the molecule `O=C(O)C(=O)CC1(C(=O)O)C=CC(O)C=C1` (stereo not given) [Prephenate], the “collision cross section (N2)” value in data set [2] ([M+Na]+) is on record as 155 Å².
For `CCC(=O)NCC(=O)O` [Propionylglycine], in data set [2] ([M-H]-), the “collision cross section (N2)” value amounted to 126.93 Å².
With `O=c1[nH]cc([C@@H]2O[C@H](CO)[C@@H](O)[C@H]2O)c(=O)[nH]1` [Pseudouridine], the “collision cross section (N2)” value stood at 159 Å² in data set [2] ([M+Na]+) and 145.23 Å² in data set [2] ([M-H]-).
With `Cc1ncc(COP(=O)(O)O)c(CO)c1O` [Pyridoxine 5-phosphate], the “collision cross section (N2)” value in data set [2] ([M+H]+) is 150.5 Å².
With `Nc1ncnc2c1ncn2[C@@H]1O[C@H](CSCC[C@H](N)C(=O)O)[C@@H](O)[C@H]1O` [S-Adenosyl-L-homocysteine], the “collision cross section (N2)” value in data set [2] ([M+H]+) worked out at 182.7 Å².
On to `C[S+](CC[C@H](N)C(=O)[O-])C[C@H]1O[C@@H](n2cnc3c(N)ncnc32)[C@H](O)[C@@H]1O` (stereo not given in full) [S-Adenosylmethionine], for which the “collision cross section (N2)” value in data set [2] ([M+H]+) is 184.5 Å².
For the molecule `CC(O)C(=O)SC[C@H](NC(=O)CC[C@H](N)C(=O)O)C(=O)NCC(=O)O` (stereo not given in full) [S-Lactoylglutathione], the “collision cross section (N2)” value in data set [2] ([M+H]+) amounted to 187.7 Å²; in data set [2] ([M+Na-2H]-) it was 176.59 Å².
For `O=C(O)CCCCCCCCC(=O)O` [Sebacic acid], the “collision cross section (N2)” value in data set [2] ([M-H]-) came to 141.9 Å².
For `CC(C)=CCC/C(C)=C/CC/C(C)=C/CC/C=C(\C)CC/C=C(\C)CCC=C(C)C` [Squalene], the “collision cross section (N2)” value in data set [2] ([M+H]+) came out at 210.9 Å².
In the case of `O=C(O)CCCCCCC(=O)O` [Suberic acid], the “collision cross section (N2)” value in data set [2] ([M-H]-) was determined as 133.2 Å².
For `O=C(O)CCCCCCC(=O)NCC(=O)O` [Suberylglycine], the “collision cross section (N2)” value is reported as 153.7 Å² in data set [2] ([M+Na]+) and 146.81 Å² in data set [2] ([M-H]-).
As to `O=C(O)C(O)C(O)C(=O)O` (stereo not given) [Tartaric acid], the “collision cross section (N2)” value in data set [2] ([M-H]-) is recorded as 115.46 Å².
Turning to `C[C@H](CCC(=O)NCCS(=O)(=O)O)[C@H]1CC[C@H]2[C@@H]3[C@H](O)C[C@@H]4C[C@H](O)CC[C@]4(C)[C@H]3C[C@H](O)[C@]12C` [Taurocholate], the “collision cross section (N2)” value in data set [2] ([M+Na]+) is listed as 211.2 Å²; in data set [2] ([M-H]-) it was 205.82 Å².
For the molecule `Nc1nc(=O)c2c([nH]1)NCC(CNc1ccc(C(=O)N[C@@H](CCC(=O)O)C(=O)O)cc1)N2` (stereo not given in full) [Tetrahydrofolate], in data set [2] ([M-H]-), the “collision cross section (N2)” value is listed as 195.36 Å².
On to `Cc1ncc(C[n+]2csc(CCOP(=O)(O)O)c2C)c(N)n1` [Thiamine monophosphate], for which the “collision cross section (N2)” value in data set [2] ([M+H]+) is on record as 169.7 Å².
In the case of `O=C(O)/C=C/CCCCCCCCC(=O)O` [Traumatic Acid], the results for the “collision cross section (N2)” value in data set [2] ([M+Na]+) and in data set [2] ([M-H]-) were 161.9 Å² and 149.85 Å², respectively.
As for `NCCc1c[nH]c2ccccc12` [Tryptamine], the “collision cross section (N2)” value was found to be 125.1 Å² in data set [2] ([M+H-H2O]+) and 131.55 Å² in data set [2] ([M-H]-).
Turning to `NCCc1ccc(O)cc1` [Tyramine], in data set [2] ([M-H]-), the “collision cross section (N2)” value was 129.74 Å².
With `COC1=C(OC)C(=O)C(C/C=C(\C)CCC=C(C)C)=C(C)C1=O` [Ubiquinone-2], the “collision cross section (N2)” value in data set [2] ([M+H]+) is given as 174.3 Å².
The same measure, in the same setting: the result for `O=c1ccn([C@@H]2O[C@H](COP(=O)(O)OP(=O)(O)O)[C@@H](O)[C@H]2O)c(=O)[nH]1` [Uridine 5'-diphosphate] reads 176.5 Å².
For the molecule `O=C(O)[C@H]1O[C@H](OP(=O)(O)OP(=O)(O)OC[C@H]2O[C@@H](n3ccc(=O)[nH]c3=O)[C@H](O)[C@@H]2O)[C@H](O)[C@@H](O)[C@@H]1O` [Uridine 5'-diphosphoglucuronic acid], the results for the “collision cross section (N2)” value in data set [2] ([M+Na-2H]-) and in data set [2] ([M+Na]+) were 201.6 Å² and 210.1 Å², respectively.
Regarding `COc1cc(C(=O)O)ccc1O` [Vanillic acid], the “collision cross section (N2)” value in data set [2] ([M+H]+) is 136.2 Å².
Consider `O=c1[nH]c(=O)c2ncn([C@@H]3O[C@H](COP(=O)(O)O)[C@@H](O)[C@H]3O)c2[nH]1` [Xanthylic acid], for which the “collision cross section (N2)” value in data set [2] ([M+H]+) worked out at 174.7 Å²; in data set [2] ([M-H]-), 164.74 Å².
For the molecule `O=P(O)(O)O[C@H]1O[C@H](CO)[C@@H](O)[C@H](O)[C@H]1O` [alpha-D-Glucose 1-phosphate], the “collision cross section (N2)” value in data set [2] ([M+Na]+) was determined as 158 Å²; in data set [2] ([M-H]-) it was 145.48 Å².
For `CC(=O)NC(CCC(N)=O)C(=O)O` [alpha-N-Acetyl-L-glutamine] the same measures were 144.2 Å² and 136.83 Å².
On to `Nc1ccn([C@H]2C[C@H](O)[C@@H](COP(=O)(O)OP(=O)(O)OP(=O)(O)O)O2)c(=O)n1` [dCTP], for which, in data set [2] ([M+H]+), the “collision cross section (N2)” value is 184.9 Å².
The same measure, in the same setting: the result for `N[C@@H](CCC(=O)N[C@@H](Cc1ccccc1)C(=O)O)C(=O)O` [gamma-Glutamylphenylalanine] reads 168.2 Å².
As for `CC(C)[C@H](NC(=O)CC[C@H](N)C(=O)O)C(=O)O` [gamma-Glutamylvaline], the “collision cross section (N2)” value in data set [2] ([M+H]+) turned out to be 160.1 Å².
Turning to `O=C(O)Cc1ccc(O)cc1` [p-Hydroxyphenylacetic acid], the “collision cross section (N2)” value in data set [2] ([M-H]-) stood at 126.65 Å².
